Test results taken from patent US20110015208A1, “PHARMACEUTICAL COMPOSITIONS CONTAINING DOPAMINE RECEPTOR LIGANDS AND METHODS OF TREATMENT USING DOPAMINE RECEPTOR LIGANDS” (priority 2007, published 2011).

Key:
[1] = tested on: basal locomotor activity of mice; experiment: Open field, basal locomotor activity of mice (Example 4A); type: in vivo, mouse; settings: test condition water; 400 mg/kg IP, 30 min pretreatment
Experimental: (§1) Cariprazine hydrochloride and escitalopram oxalate were evaluated for anti-manic effects using the amphetamine/chlordiazepoxide (AMPH/CDP) hyperactivity test.
(§2) Male C57B1/6J mice from Jackson Laboratories (Bar Harbor, Me.) were used in this study. Mice were received at 6-weeks of age. Upon receipt, mice were assigned unique identification numbers (tail marked) and were group housed with 4 mice/cage. All animals remained housed in groups of four during the remainder of the study. All mice were acclimated to the colony room for at least two weeks prior to testing and were subsequently tested at an average age of 8 weeks of age. During the period of acclimation, mice were examined on a regular basis, handled, and weighed to assure adequate health and suitability. Mice were maintained on a 12/12 light/dark cycle. The room temperature was maintained between 20 and 23° C. with a relative humidity maintained between 30% and 70%. Chow and water were provided ad libitum for the duration of the study. In each test, animals were randomly assigned across treatment groups.
(§3) Distance traveled is measured by consecutive beam breaks.
(§4) Data was analyzed by analysis of variance (ANOVA) followed by Fisher PLSD post-hoc analysis when appropriate. An effect was considered significant if p<0.05. Outliers that fell above and below two standard deviations from the mean were removed from the final analysis.

[2] = tested on: d-amphetamine/chlordiazepoxide mixture (AMPH/CDP)-induced hyperactivity in mice; experiment: d-Amphetamine/chlordiazepoxide (AMPH/CDP) hyperactivity test (Example 4A); type: in vivo, mouse; settings: test condition AMPH/CDP; 400 mg/kg IP, 30 min pretreatment
Experimental: as §1, §2
(§5) d-Amphetamine sulfate (Sigma, 4.0 mg/kg) and chlordiazepoxide (CDP; Sigma, 2.5 mg/kg) were dissolved in sterile water and were administered intraperitoneally at a dose volume of 10 ml/kg.
as §3, §4

[3] = tested on: basal locomotor activity of mice; experiment: Open field, basal locomotor activity of mice (Example 4B); type: in vivo, mouse; settings: test condition water; 400 mg/kg IP
Experimental: as §1
(§6) Male C57B1/6J mice (8 weeks old) from Jackson Laboratories (Bar Harbor, Me.) were used in this study. Upon receipt, mice were assigned unique identification numbers (tail marked) and were group housed (4 mice/cage) in OPTI mouse ventilated cages. All animals remained housed in groups of four during the remainder of the study. During the period of acclimation, mice were examined on a regular basis, handled, and weighed to assure adequate health and suitability. Mice were maintained on a 12/12 light/dark cycle. The room temperature was maintained between 20 and 23° C. with a relative humidity maintained between 30% and 70%. Chow and water were provided ad libitum for the duration of the study. In each test, animals were randomly assigned across treatment groups.
as §3, §4

[4] = tested on: d-amphetamine/chlordiazepoxide mixture (AMPH/CDP)-induced hyperactivity in mice; experiment: d-Amphetamine/chlordiazepoxide (AMPH/CDP) hyperactivity test (Example 4B); type: in vivo, mouse; settings: test condition AMPH/CDP; 400 mg/kg IP
Experimental: as §1, §6, §5, §3, §4

[5] = tested on: chronic mild stress (CMS) model of depression; experiment: Chronic mild stress (CMS) model of depression, sucrose consumption (Example 2); type: in vivo, rat; settings: imipramine 10 mg/kg IP once daily, stressed animals
Description: This study evaluated the antidepressant effect of cariprazine hydrochloride in the chronic mild stress (CMS) model of depression. A comparison to the efficacy of the tricyciclic antidepressant compound imipramine was also made.
Male Wistar rats were adapted to laboratory and housing conditions for 3 weeks, followed by adoption to consumption of 1% sucrose solution for an additional 5 weeks before being separated into control and to-be-stressed groups.
Chronic stress was applied to the allocated group for seven weeks. The following stressors were used: food and/or water deprivation, cage tilting (45 degrees backwards), intermittent illumination, paired housing, soiled cage (250 mL of tap water in sawdust bedding), stroboscopic illumination (150 flashed per minute), no stress. All stressors were 10-14 hours in duration and were applied individually and continuously, once or twice weekly, during the day and at night.
Consumption of sucrose solution was measured in 1-hour tests conducted on all animals (i.e., controls and stressed) once weekly throughout the entire experiment. The tests were preceded by 14 hours of food and water deprivation. On the basis of their sucrose intakes following the initial 2 weeks of stress, both stressed and control animals received once-daily chronic (5 weeks) IP injections of vehicle (1% methyl cellulose, 1 mL/kg), cariprazine hydrochloride (0.0625, 0.25 or 1.0 mg/kg), or imipramine (10 mg/kg) as reference treatment. […] These animals were considered weak responders/non-responders and were eliminated from the analysis.

[6] = tested on: chronic mild stress (CMS) model of depression; experiment: Chronic mild stress (CMS) model of depression, sucrose consumption (Example 3); type: in vivo, rat; settings: imipramine, reference treatment in parallel studies
Description: Similar to the study described in Example 2, additional studies were undertaken to further evaluate the antidepressant effect of cariprazine hydrochloride, administered alone, or in combination with escitalopram oxalate, in a chronic mild stress model of depression
In the chronic mild stress (CMS) model, rats subjected to a variety of mild stressors for a prolonged period of time show a substantial decrease in their responsiveness to rewarding stimuli. This deficit is usually monitored by a decrease in the consumption of a 1% sucrose solution, but can also be seen in other tests, such as place preference conditioning or intracranial self-stimulation. The subsensitivity to reward appears to reflect anhedonia (inability to experience pleasure), which is a core symptom of major depressive disorders. Clinically approved antidepressants have shown activity in this animal model by reversing the effects of CMS on sucrose consumption. See, e.g., Sanchez C, Gruca P, Papp M, Behavioural Pharmacology 14, 465-470, 2003.
Male Wistar rats (Charles River, Germany) were brought into the laboratory two months before the start of the experiment. Except as described below, the animals were singly housed with food and water freely available, and were maintained on a 12-h light/dark and in a constant temperature (22±2° C.) and humidity (50±5%) conditions.
The animals were first trained to consume a 1% sucrose solution; training consisted of nine 1 h baseline tests in which sucrose was presented, in the home cage, following 14 h food and water deprivation. The sucrose intake was measured by weighing pre-weighed bottles containing the sucrose solution, at the end of the test. Subsequently, sucrose consumption was monitored, under similar conditions, at weekly intervals throughout the whole experiment.
On the basis of their sucrose intakes in the final baseline test, the animals were divided into two matched groups. One group of animals was subjected to the chronic mild stress procedure for a period of 7 consecutive weeks. Each week of stress regime consisted of: two periods of food or water deprivation, two periods of 45 degree cage tilt, two periods of intermittent illumination (lights on and off every 2 h), two periods of soiled cage (250 ml water in sawdust bedding), one period of paired housing, two periods of low intensity stroboscopic illumination (150 flashes/min), and three periods of no stress. All stressors were 10-14 h of duration and were applied individually and continuously, day and night. Control animals were housed in separate rooms and had no contact with the stressed animals. They were deprived of food and water for 14 h preceding each sucrose test, but otherwise food and water were freely available in the home cage.

| SMILES | Total Distance Traveled [mean ± SEM] [1] | Total Distance Traveled [mean ± SEM] [2] | Total Distance Traveled [mean ± SEM] [3] | Total Distance Traveled [mean ± SEM] [4] | CMS-induced decrease in consumption of 1% sucrose solution ([5]; 5 weeks) | onset of action: effect on sucrose drinking evident at [5] | time until effect on sucrose consumption reached significance [6] |
| --- | --- | --- | --- | --- | --- | --- | --- |
| CCCC(CCC)C(=O)O [Valproate] | 4471 ± 298 cm/60 min | 17496 ± 1788 cm/60 min | 3365 ± 612 cm/60 min | 18478 ± 2961 cm/60 min |  |  |  |
| CN(C)CCCN1c2ccccc2CCc2ccccc21 [imipramine, reference compound] |  |  |  |  | fully reversed | 3 Week | after three weeks of administration |
